# Laboratory results as given in patent publication US8354419B2, “Benzimidazole analogues for the treatment or prevention of flavivirus infections” (Vertex Pharmaceuticals Incorporated, priority 2009, dated 2013).
# System: HCV (Ib) RNA replication
# Assay: Cell-based luciferase reporter HCV (1b) RNA replication assay (replicon cell lines Huh-7 5.2 and ET)
# Design: species or system Hepatitis C virus
# Conditions: Hepatitis C virus, Huh-7, 96 h, HCV 1b genotype replicon, luciferase readout, 4 days incubation; read-out: EC50_1b
# From the text: Cell-Based Luciferase Reporter HCV (Ib) RNA Replication Assay Cell Culture
# Replicon cell lines Huh-7, 5.2 and ET which are derived from the Huh-7 hepatocarcinoma cell line are maintained in culture as generally described in Krieger, N; Lohmann, V; Bartenschlager, R. Enhancement of hepatitis C virus RNA replication by cell culture-adaptive mutations. J. Virol. 2001, 75, 4614-4624. The Huh-7, 5.2 cells contain the highly cell culture-adapted replicon I389luc-ubi-neo/NS3-3′/5.1 construct that carries, in addition to the neomycin gene, an integrated copy to the firefly luciferase gene (Krieger, N; Lohmann, V; Bartenschlager, R. Enhancement of hepatitis C virus RNA replication by cell culture-adaptive mutations. J. Virol. 2001, 75, 4614-4624). This cell line allows measurement of HCV RNA replication and translation by measuring luciferase activity. It has been previously shown that the luciferase activity tightly follows the replicon RNA level in these cells (Krieger, N; Lohmann, V; Bartenschlager, R. Enhancement of hepatitis C virus RNA replication by cell culture-adaptive mutations. J. Virol. 2001, 75, 4614-4624). The Huh-7, ET cell line has the same features as those mentioned for Huh-7, 5.2 cell line, except that ET cells are more robust and contain an adaptative mutation in the HCV NS4B gene instead of NS5A. Both cell lines are maintained in cultures at a sub-confluent level (<85%) as the level of replicon RNA is highest in actively proliferating cells. The culture media used for cell passaging consist of DMEM (Gibco BRL Laboratories, Mississauga, ON, Canada) supplemented with 10% foetal bovine serum with 1% penicillin/streptomycin, 1% glutamine, 1% sodium pyruvate, 1% non-essential amino acids, and 180 ug/ml of G418 final concentration. Cells are incubated at 37° C., in an atmosphere of 5% CO2 and passaged twice a week to maintain sub-confluence.
# Approximately 3000 viable Huh-7, 5.2 or ET cells (100 μl) are plated per well in a white opaque 96-well microtiter plate. The cell culture media used for the assay is the same as described above except that it contains no G418 and no phenol red. After an incubation period of 3-4 hours at 37° C. in a 5% CO2 incubator, compounds (100 μl) are added at various concentrations. Cells are then further incubated for 4 days at 37° C. in a 5% CO2 incubator. Thereafter, the culture media is removed and cells are lysed by the addition of 95 μL of the luciferase buffer (luciferin substrate in buffered detergent). Cell lysates are incubated at room temperature and protected from direct light for at least 10 minutes. Plates are read for luciferase counts using a luminometer (Wallac MicroBeta Trilux, Perkin ELmer™, MA, USA).
# The 50% inhibitory concentrations (IC50s) for inhibitory effect are determined from dose response curves using eleven concentrations per compound in duplicate. Curves are fitted to data points using nonlinear regression analysis, and IC50s are interpolated from the resulting curve using GraphPad Prism software, version 2.0 (GraphPad Software Inc., San Diego, Calif., USA).
# Table 2 show compounds representative of the present invention and the EC50 values against the HCV 1b genotype.
row,Compound,EC50 [nM]
1,"COC(=O)NC(C(=O)N1C[C@H](O)C[C@H]1c1nc2ccc(-c3ccc(-c4ccc5[nH]c([C@@H]6C[C@@H](O)CN6C(=O)[C@@H](NC(=O)OC)C(C)C)nc5c4)cc3)cc2[nH]1)C(C)C (stereo in doubt) [Compound 26, ((S)-1-{(2S,4R)-4-Hydroxy-2-[5-(4-{2-[(2S,4R)-4-hydroxy-1-((S)-2-methoxycarbonylamino-3-methyl-butyryl)-pyrrolidin-2-yl]-1H-benzoimidazol-5-yl}-phenyl)-1H-benzoimidazol-2-yl]-pyrrolidine-1-carbonyl}-2-methyl-propyl)-carbamic acid methyl ester]",≤ 5
2,"COC(=O)N[C@H](C(=O)N1CCC[C@H]1c1nc2cc(-c3ccc(-c4ccc5nc([C@@H]6CCCN6C(=O)[C@@H](NC(=O)OC)C(C)C)[nH]c5c4)cc3)ccc2[nH]1)C(C)C [Compound 1, ((S)-1-{(S)-2-[5-(4-{2-[(S)-1-((S)-2-Methoxycarbonylamino-3-methyl-butyryl)-pyrrolidin-2-yl]-1H-benzoimidazol-5-yl}-phenyl)-1H-benzoimidazol-2-yl]-pyrrolidine-1-carbonyl}-2-methyl-propyl)-carbamic acid methyl ester]",≤ 5
3,"COC(=O)N[C@H](C(=O)N1CCC[C@H]1c1nc2ccc(-c3cccc(-c4ccc5nc([C@@H]6CCCN6C(=O)[C@@H](NC(=O)OC)C(C)C)[nH]c5c4)c3)cc2[nH]1)C(C)C [Compound 2, ((S)-1-{(S)-2-[5-(3-{2-[(S)-1-((S)-2-Methoxycarbonylamino-3-methyl-butyryl)-pyrrolidin-2-yl]-1H-benzoimidazol-5-yl}-phenyl)-1H-benzoimidazol-2-yl]-pyrrolidine-1-carbonyl}-2-methyl-propyl)-carbamic acid methyl ester]",5 to 5000
4,"COC(=O)N[C@H](C(=O)N1CC(F)(F)C[C@H]1c1nc2cc(-c3ccc(-c4ccc5nc([C@@H]6CC(F)(F)CN6C(=O)[C@@H](NC(=O)OC)C(C)C)[nH]c5c4)cc3)ccc2[nH]1)C(C)C [Compound 3, ((S)-1-{(S)-2-[5-(4-{2-[(S)-4,4-Difluoro-1-((S)-2-methoxycarbonylamino-3-methyl-butyryl)-pyrrolidin-2-yl]-1H-benzoimidazol-5-yl}-phenyl)-1H-benzoimidazol-2-yl]-4,4-difluoro-pyrrolidine-1-carbonyl}-2-methyl-propyl)-carbamic acid methyl ester]",≤ 5
5,"COC(=O)N(C)[C@H](C(=O)N1CCC[C@H]1c1nc2cc(-c3ccc(-c4ccc5nc([C@@H]6CCCN6C(=O)[C@H](C(C)C)N(C)C(=O)OC)[nH]c5c4)cc3)ccc2[nH]1)C(C)C [Compound 4, [(S)-1-((S)-2-{5-[4-(2-{(S)-1-[(S)-2-(Methoxycarbonyl-methyl-amino)-3-methyl-butyryl]-pyrrolidin-2-yl}-1H-benzoimidazol-5-yl)-phenyl]-1H-benzoimidazol-2-yl}-pyrrolidine-1-carbonyl)-2-methyl-propyl]-methyl-carbamic acid methyl ester]",≤ 5
6,"COC(=O)N[C@H](C(=O)N1CCC[C@H]1c1nc2cc(-c3ccc(-c4ccc5nc([C@@H]6CCCN6C(=O)[C@@H](NC(=O)OC)C(C)C)[nH]c5c4)cc3C#N)ccc2[nH]1)C(C)C [Compound 5, ((S)-1-{(S)-2-[5-(2-Cyano-4-{2-[(S)-1-((S)-2-methoxycarbonylamino-3-methyl-butyryl)-pyrrolidin-2-yl]-1H-benzoimidazol-5-yl}-phenyl)-1H-benzoimidazol-2-yl]-pyrrolidine-1-carbonyl}-2-methyl-propyl)-carbamic acid methyl ester]",≤ 5
7,"COC(=O)N[C@H](C(=O)N1CCC[C@H]1c1nc2cc(-c3ccc(-c4ccc5nc([C@@H]6CCCN6C(=O)[C@@H](NC(=O)OC)C(C)C)[nH]c5c4)cn3)ccc2[nH]1)C(C)C [Compound 6, ((S)-1-{(S)-2-[5-(5-{2-[(S)-1-((S)-2-Methoxycarbonylamino-3-methyl-butyryl)-pyrrolidin-2-yl]-1H-benzoimidazol-5-yl}-pyridin-2-yl)-1H-benzoimidazol-2-yl]-pyrrolidine-1-carbonyl}-2-methyl-propyl)-carbamic acid methyl ester]",≤ 5
8,"COC(=O)N[C@H](C(=O)N1CCC[C@H]1c1nc2cc(-c3ccc(-c4ccc5nc([C@@H]6CCCN6C(=O)[C@@H](NC(=O)OC)C(C)C)[nH]c5c4)cc3C)ccc2[nH]1)C(C)C [Compound 7, ((S)-1-{(S)-2-[5-(4-{2-[(S)-1-((S)-2-Methoxycarbonylamino-3-methyl-butyryl)-pyrrolidin-2-yl]-1H-benzoimidazol-5-yl}-2-methyl-phenyl)-1H-benzoimidazol-2-yl]-pyrrolidine-1-carbonyl}-2-methyl-propyl)-carbamic acid methyl ester]",≤ 5
9,"COC(=O)N[C@H](C(=O)N1CCC[C@H]1c1nc2cc(-c3ccc(-c4ccc5nc([C@@H]6CCCN6C(=O)[C@@H](NC(=O)OC)C(C)C)[nH]c5c4)cc3OC)ccc2[nH]1)C(C)C [Compound 8, ((S)-1-{(S)-2-[5-(2-Methoxy-4-{2-[(S)-1-((S)-2-methoxycarbonylamino-3-methyl-butyryl)-pyrrolidin-2-yl]-1H-benzoimidazol-5-yl}-phenyl)-1H-benzoimidazol-2-yl]-pyrrolidine-1-carbonyl}-2-methyl-propyl)-carbamic acid methyl ester]",≤ 5
10,"COC(=O)N[C@H](C(=O)N1CCC[C@H]1c1nc2cc(-c3ccc(-c4ccc5nc([C@@H]6CCCN6C(=O)[C@@H](NC(=O)OC)C(C)C)[nH]c5c4)cc3F)ccc2[nH]1)C(C)C [Compound 9, ((S)-1-{(S)-2-[5-(2-Fluoro-4-{2-[(S)-1-((S)-2-methoxycarbonylamino-3-methyl-butyryl)-pyrrolidin-2-yl]-1H-benzoimidazol-5-yl}-phenyl)-1H-benzoimidazol-2-yl]-pyrrolidine-1-carbonyl}-2-methyl-propyl)-carbamic acid methyl ester]",≤ 5
11,"COC(=O)N[C@H](C(=O)N1CCC[C@H]1c1nc2cc(-c3ccc(-c4ccc5[nH]c([C@@H]6CCCN6C(=O)[C@@H](NC(=O)OC)C(C)C)nc5c4)c(Cl)c3)ccc2[nH]1)C(C)C [Compound 10, ((S)-1-{(S)-2-[5-(2-Chloro-4-{2-[(S)-1-((S)-2-methoxycarbonylamino-3-methyl-butyryl)-pyrrolidin-2-yl]-1H-benzoimidazol-5-yl}-phenyl)-1H-benzoimidazol-2-yl]-pyrrolidine-1-carbonyl}-2-methyl-propyl)-carbamic acid methyl ester]",≤ 5
12,"COC(=O)N[C@H](C(=O)N1CCC[C@H]1c1nc2cc(-c3ccc(-c4ccc5[nH]c([C@@H]6CCCN6C(=O)[C@@H](NC(=O)OC)C(C)C)nc5c4)c(C#N)n3)ccc2[nH]1)C(C)C [Compound 11, ((S)-1-{(S)-2-[5-(2-Cyano-6-{2-[(S)-1-((S)-2-methoxycarbonylamino-3-methyl-butyryl)-pyrrolidin-2-yl]-1H-benzoimidazol-5-yl}-pyridin-3-yl)-1H-benzoimidazol-2-yl]-pyrrolidine-1-carbonyl}-2-methyl-propyl)-carbamicacid methyl ester]",5 to 5000
13,COC(=O)N[C@H](C(=O)N1CCC[C@H]1c1nc2ccc(-c3cc(OC)c(-c4ccc5nc([C@@H]6CCCN6C(=O)[C@@H](NC(=O)OC)C(C)C)[nH]c5c4)cc3OC)cc2[nH]1)C(C)C [Compound 12],≤ 5
